The text below walks through data of patent US20040138301A1, “Chemical uncouplers for the treatment of obesity” (priority 2002, published 2004).

For data set [1], the system named is FSK-4 cells. As to the kind of experiment: Assay (IV): Glucose utilisation in FSK-4 cells. It is filed as cell-based. Particulars: FSK-4 cells; for EC50: glucose utilisation, 24 hours incubation, read-out: FSK4 EC50; for Emax: maximal efficacy relative to FCCP, read-out: FSK4 Emax (% of FCCP). As for the experimental part: Assay (IV): Glucose Utilisation in FSK-4 Cells
The assay measures indirectly the activity of the respiratory chain in FSK-4 cells by using D-(6-^3H(N))-glucose. The ^3H-proton will first be released in the TCA cyclus and transported to the respiratory chain where it will be incorporated into water. The water is thereafter separated from the D-(6-^3H(N))-glucose by evaporation. Finally, the radioactivity in the water is determined using a Topcounter.
FSK-4 cells obtained from ATCC (Maryland, USA), are cultured in growth medium (McCoy's medium with the following addition 100 units/ml penicillin and streptomycin and 10% FCS (fetal calf serum)) at 37° C. and 5% CO2. All media are obtained by Gibco (Life Technologies, Maryland, USA) where not otherwise mentioned.
At day zero the cells are harvested using trypsin-EDTA and washed in assay medium (MEM medium with the following addition 1× non-essential amino acids (M7145, 2 mM glutamin, 100 units/ml pencillin and streptomycin, 0.0075% sodium bicarbonate, 1 mM sodium pyrovate and 2% horse serum) using centrifugation. The cells are plated into single StripPlates wells (Corning B.V.Life Sciences, The Netherlands) that are placed into 24-well plates (Corning B.V.Life Sciences, The Netherlands) with a concentration of 1,5×10^4 cells/100 μl assay medium/well. The cells are then incubated at 37° C. and 5% CO2 overnight.
(§1) The next day the compounds to be tested are diluted to different concentrations in DMSO (Sigma, Missouri, USA) to 100 times final concentration. They are then diluted to a final concentration in assay medium containing 10 μCi/ml D-(6-^3H(N))-glucose (PerkinElmer Life Sciences Inc., Boston, USA). The medium is removed from the cells and 200 μl of the compound dilutions are added in duplicates. The cells are then incubated for another 24 hours at 37° C. and 5% CO2. Finally the cells are lysed by adding 50 μl 10% TCA (tri-chloroacetatic acid). 300 μl of sterile water is then added to the 24-wells that surrounds the StripPlate wells. The plate is sealed with Top-seal-tape (Packard, PerkinElmer Life Sciences Inc., Boston, USA) and the plate is incubated in a heating cupboard at 50° C. to equilibrium the radioactive water formed in the respiratory chain into the water in the 24-well plate by evaporate. The plates incubate for 8 hours where the heating cupboard is turned off. The top seal is removed when the samples have reached room temperature. One ml scintillation liquid (Packard Microscient, PerkinElmer Life Sciences Inc., Boston, USA) is added to all the samples and the radioactivity is determined using a Topcounter (Packard, PerkinElmer Life Sciences Inc., Boston, USA). Non-specific activity is determined by evaporating 200 μl of the dilution medium containing the D-(6-^3H(N))-glucose into 300 μl sterile water, and total radioactivity is determined by counting 5 μl assay medium with 10 μCi/ml D-(6-^3H(N))-glucose.
All calculations are done using GraphPad Prism 3.0 (GraphPad software, Inc.) From concentration-response curves the half maximal concentration (EC50) and maximal efficacy (Emax) are calculated using equation 1.
Y=Bottom+(Top−Bottom)/(1+10^((LogEc50-X)*slope))
(§2) X is the logarithm of the molar concentration of the test compound.
Y is the degree of stimulation caused by the compound measured as percentage of the basal stimulation.
The calculated EC50 value is then used to determine the concentrations used in a study where the Hill slope is calculated.
From the double logarithmic plot of the increase in glucose utilisation and the compound concentration the Hill slope is calculated accordingly to equation 2.
It is presumed, that the maximal increase in the glucose utilisation (as measured in the FSK-4 glucose utilisation assay) is limited by the capacity of the metabolism.

For data set [2], the system named is HEP-G2 cells. As to the kind of experiment: cells. Particulars: for EC50 / Emax / EC (Emax): Homo sapiens; for EC50: HepG2, 3 h, read-out: HEP-G2 EC50, HEP-G2 cells, glucose utilisation, 3 hours incubation; for Emax: HepG2, read-out: HEP-G2 Emax (% of FCCP), HEP-G2 cells, maximal stimulation relative to FCCP; for EC (Emax): HepG2, read-out: HEP-G2 Emax (μM), HEP-G2 cells, concentration at which Emax is achieved (CEmax); for HEP-G2 Tox: human, 3 h. As to the method: Assay (I): Glucose utilisation in a human hepatocytes cell line (HEP-G2 cells)
The assay measures indirectly the activity of the respiratory chain in HEP-G2 cells by using D-(3-^3H(N))-glucose. The ^3H-proton will first be released during the metabolism of glucose where it will be incorporated into water. The water is thereafter separated from the D-(3-^3H(N))-glucose by evaporation. Finally, the radioactivity in the water is determined using a Topcounter.
HEP-G2 cells obtained from ATCC (Maryland, USA), are cultured in assay medium (MEM medium) with the following addition 1× non-essential amino acids (M7145, 2 mM glutamine, 100 units/ml penicillin and streptomycin, 0.0075% sodium bicarbonate, 1 mM sodium pyrovate and 0.5% BSA (Bovin Serum Albumin, Sigma Missouri, USA)) at 37° C. and 5% CO2. All media are obtained by Gibco (Life Technologies, Maryland, USA) where not otherwise mentioned.
At day zero the cells are harvested using trypsin-EDTA and washed in assay medium using centrifugation. […] The cells are then incubated at 37° C. and 5% CO2 overnight.
as §1, with “diluted” for “diluted to different concentrations”, “μCi/ml D-(3-^3H(N))-glucose” for “μCi/ml D-(6-^3H(N))-glucose”, “another 3” for “another 24”, “TCA (trichloroacetic” for “TCA (tri-chloroacetatic”, “the D-(3-^3H(N))-glucose” for “the D-(6-^3H(N))-glucose”, “μCi/ml D-(3-^3H(N))-glucose.” for “μCi/ml D-(6-^3H(N))-glucose.”
The cpm (counts per minute) representing the non-specific radioactivity in the D-(3-^3H(N))-glucose is subtracted from all incubated values. Then mean basal value (samples without any compound added) is subtracted from the values of all stimulated samples (samples added different concentrations of the different test compounds). All these calculations are done using GraphPad Prism 3.0 (GraphPad software, Inc.). The maximal stimulation caused by the test compounds is calculated in percentage of maximal stimulation caused by either DNP or FCCP.
When calculating the concentration-response curve the maximal glucose utilisation stimulated by FCCP or DNP (subtracted non-specific and basal values) is converted to 100% and all the other values are expressed in percentage of this value. Using these percentage values and the compound concentration a concentration-response curve is calculated using sigmoidal dose-response (variable slope) equation (all the calculations are done by GraphPad Prism 3.0 (GraphPad software, Inc.));
Y=Bottom+(Top−Bottom)/(1+10^((LogEC50-X)*slope))
as §2
Y is the degree of stimulation caused by the compound measured as a percentage of the maximal stimulation achieved by use of FCCP or DNP.
The results achieved with these concentrations are used to determine the slope in this area using the following equation: […]

By EC50 is commonly meant the concentration giving half of the maximal effect. In general, Emax refers to the size of the effect at its maximum, as opposed to the concentration needed.

Turning to `Cc1c(Cl)cc(C(C)(C)C)c(O)c1C(=O)Nc1ccc([N+](=O)[O-])cc1Cl` [Example 5, 3-Tert-Butyl-5-Chloro-N-(2-Chloro-4-Nitrophenyl)-2-Hydroxy-6-Methyl-Benzamide], in data set [1], the 50% effective concentration (EC50) is 100 nM and the Emax was 100%. Moreover, in data set [2], the EC50 came to 60 nM, the Emax amounted to 95% and the EC (Emax) was found to be 0.3 µM.

`Cc1c(Br)cc(C(C)(C)C)c(O)c1C(=O)Nc1cc(C(F)(F)F)cc(C(F)(F)F)c1Br` [Example 60, 3-Bromo-N-(2-Bromo-3,5-Bis-Trifluoromethyl-Phenyl)-5-Tert-Butyl-6-Hydroxy-2-Methylbenzamide]: in data set [1], the EC50 amounted to 300 nM and the Emax stood at 105%. In data set [2], the EC50 came out at 70 nM, the Emax was 90% and the EC (Emax) came to 0.3 µM.

On to `CCOC(=O)C(=Cc1cc(C(C)(C)C)c(O)c(C(C)(C)C)c1)C(=O)OCC` [Example 16, 2-(3,5-Di-Tert-Butyl-4-Hydroxy-Benzylidene)-Malonic Acid Diethyl Ester], for which, in data set [1], the EC50 worked out at 30000 nM and the Emax came out at 45%. Moreover, in data set [2], the concentration giving a half-maximal response (EC50) is 11000 nM, the Emax came out at 100% and the EC (Emax) was 100 µM.

As to `CC(C)(C)c1cc(/C=C(\C#N)c2ccc(OC(F)(F)F)cc2)cc(C(C)(C)C)c1O` [Example 80, 3-(3,5-Di-Tert-Butyl-4-Hydroxy-Phenyl)-2-(4-Trifluoromethoxy-Phenyl)-Acrylonitrile], in data set [1], the EC50 stood at 18000 nM and the Emax was found to be 100%. For the same molecule, in data set [2], the EC50 worked out at 8000 nM, the Emax was 80%, the EC (Emax) is 100 µM and the “HEP-G2 Tox” value is recorded as “Tox 0.3 mM”.

For `Cc1c(Cl)cc(C(C)(C)C)c(O)c1C(=O)Nc1cc(C(F)(F)F)ccc1F` [Example 48, 3-Tert-Butyl-5-Chloro-N-(2-Fluoro-5-Trifluoromethyl-Phenyl)-2-Hydroxy-6-Methyl-Benzamide], in data set [1], the EC50 was 2800 nM and the Emax stood at 85%. Besides, in data set [2], the EC50 was 3500 nM, the Emax worked out at 95%, the EC (Emax) is 10 µM and the “HEP-G2 Tox” value came to 0.1 mM.

On to `CC(C)(C)c1cc(C=C2C(=O)c3ccccc3C2=O)cc(C(C)(C)C)c1O` [Example 18, 2-(3,5-Di-Tert-Butyl-4-Hydroxy-Benzylidene)-Indan-1,3-Dione], for which, in data set [1], the EC50 worked out at 6000 nM and the Emax was 100%. In data set [2], the EC50 amounted to 600 nM, the Emax came out at 80% and the EC (Emax) came to 3 µM.

Consider `N#CC(C#N)=Cc1c(-c2ccc(Cl)cc2)[nH]c2ccccc12` [Example 19, 2-[[2-(4-Chlorophenyl)-1H-Indol-3-Yl]Methylene]Malononitrile], for which, in data set [1], the EC50 came out at 1100 nM and the Emax is 55%. Further, in data set [2], the EC50 stood at 7000 nM, the Emax was found to be 100% and the EC (Emax) turned out to be 100 µM.

With `Cc1c(Br)cc(C(C)(C)C)c(O)c1C(=O)Nc1c(Cl)cc(Cl)cc1[N+](=O)[O-]` [Example 54, 3-Bromo-5-Tert-Butyl-N-(2,4-Dichloro-6-Nitro-Phenyl)-6-Hydroxy-2-Methyl-Benzamide], in data set [1], the EC50 is 300 nM and the Emax worked out at 80%. In addition, in data set [2], the EC50 came to 520 nM, the Emax stood at 90% and the EC (Emax) was 3 µM.

Take `Cc1c(Cl)cc(C(C)(C)C)c(O)c1C(=O)Nc1ccc(Cl)c(C(F)(F)F)c1` [Example 42, 3-Tert-Butyl-5-Chloro-N-(4-Chloro-3-Trifluoromethyl-Phenyl)-2-Hydroxy-6-Methyl-Benzamide]: in data set [1], the EC50 is 1100 nM and the Emax was 75%. In data set [2], the EC50 was 3300 nM, the Emax amounted to 89% and the EC (Emax) turned out to be 10 µM.

`Cc1c(Cl)cc(C(C)(C)C)c(O)c1C(=O)Nc1cc(C(F)(F)F)cc(C(F)(F)F)c1` [Example 47, N-(3,5-Bis-Trifluoromethyl-Phenyl)-3-Tert-Butyl-5-Chloro-2-Hydroxy-6-Methyl-Benzamide]: in data set [1], the EC50 was determined as 1000 nM and the Emax is 90%. Also, in data set [2], the EC50 was determined as 700 nM, the Emax was 75%, the EC (Emax) is 10 µM and the “HEP-G2 Tox” value is reported as “Tox 0.1 mM”.

Regarding `Cc1c(Cl)cc(C(C)(C)C)c(O)c1C(=O)Nc1ccc([N+](=O)[O-])c(C(F)(F)F)c1` [Example 49, 3-Tert-Butyl-5-Chloro-2-Hydroxy-6-Methyl-N-(4-Nitro-3-Trifluoromethyl-Phenyl)-Benzamide], in data set [1], the EC50 amounted to 300 nM and the Emax turned out to be 95%. Besides, in data set [2], the EC50 was 950 nM, the Emax came out at 105% and the EC (Emax) came out at 3 µM.
